In assay [1] the target is T1, Serine/threonine-protein kinase BRSK1 (Homo sapiens) (UniProt Q8TDC3).
T1 sequence (whole entry): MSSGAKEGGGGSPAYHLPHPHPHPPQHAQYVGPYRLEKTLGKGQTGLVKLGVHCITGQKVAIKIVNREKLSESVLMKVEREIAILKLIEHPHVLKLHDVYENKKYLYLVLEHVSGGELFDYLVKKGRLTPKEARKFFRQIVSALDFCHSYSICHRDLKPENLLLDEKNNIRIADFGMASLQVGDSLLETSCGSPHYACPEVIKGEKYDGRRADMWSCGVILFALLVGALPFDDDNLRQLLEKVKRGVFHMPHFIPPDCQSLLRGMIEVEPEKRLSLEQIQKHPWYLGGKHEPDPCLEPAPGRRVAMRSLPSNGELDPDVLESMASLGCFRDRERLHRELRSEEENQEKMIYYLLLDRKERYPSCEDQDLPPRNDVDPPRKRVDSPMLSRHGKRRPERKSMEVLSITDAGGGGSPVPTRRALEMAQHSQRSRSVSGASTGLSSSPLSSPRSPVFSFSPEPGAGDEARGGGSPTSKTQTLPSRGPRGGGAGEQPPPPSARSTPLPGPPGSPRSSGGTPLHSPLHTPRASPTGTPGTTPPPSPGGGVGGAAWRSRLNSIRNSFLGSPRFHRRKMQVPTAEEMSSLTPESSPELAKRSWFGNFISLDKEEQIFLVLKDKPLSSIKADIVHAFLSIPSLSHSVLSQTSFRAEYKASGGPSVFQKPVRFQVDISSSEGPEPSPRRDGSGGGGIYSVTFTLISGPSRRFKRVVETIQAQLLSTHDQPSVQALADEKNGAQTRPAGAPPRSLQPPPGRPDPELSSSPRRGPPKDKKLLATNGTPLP
Nature of the assay: Selectivity interaction (KinomeScan (DiscoverX)) EUB0000607a BRSK1. Particulars: at 10 µM.

The target in assay [2] is Interferon-induced, double-stranded RNA-activated protein kinase (Homo sapiens) (UniProt P19525). The assay can be described thus: Selectivity interaction (KinomeScan (DiscoverX)) EUB0000229b EIF2AK2. To be noted: at 10 µM.
Interferon-induced, double-stranded RNA-activated protein kinase (Homo sapiens), sequence (P19525 whole entry): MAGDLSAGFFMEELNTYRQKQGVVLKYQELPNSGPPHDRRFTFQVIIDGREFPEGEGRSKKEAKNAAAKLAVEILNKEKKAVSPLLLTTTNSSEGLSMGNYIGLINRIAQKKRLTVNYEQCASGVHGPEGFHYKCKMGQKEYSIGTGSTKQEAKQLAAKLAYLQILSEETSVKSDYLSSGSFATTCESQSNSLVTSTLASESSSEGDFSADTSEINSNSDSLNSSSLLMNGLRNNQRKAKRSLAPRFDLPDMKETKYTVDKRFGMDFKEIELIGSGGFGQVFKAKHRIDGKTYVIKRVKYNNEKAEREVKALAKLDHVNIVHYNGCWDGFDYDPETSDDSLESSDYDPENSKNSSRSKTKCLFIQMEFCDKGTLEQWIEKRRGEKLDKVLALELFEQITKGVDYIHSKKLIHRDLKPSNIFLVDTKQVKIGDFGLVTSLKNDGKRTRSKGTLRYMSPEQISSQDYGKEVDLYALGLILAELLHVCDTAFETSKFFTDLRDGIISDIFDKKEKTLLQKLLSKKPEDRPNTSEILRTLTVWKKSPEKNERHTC
In assay [3] the target is Ribosomal protein S6 kinase alpha-4 (Homo sapiens) (UniProt O75676). The assay can be described thus: Selectivity interaction (KinomeScan (DiscoverX)) EUB0001079a RPS6KA4. To be noted: at 1 µM.
Ribosomal protein S6 kinase alpha-4 (Homo sapiens), sequence (O75676 whole entry, looked up): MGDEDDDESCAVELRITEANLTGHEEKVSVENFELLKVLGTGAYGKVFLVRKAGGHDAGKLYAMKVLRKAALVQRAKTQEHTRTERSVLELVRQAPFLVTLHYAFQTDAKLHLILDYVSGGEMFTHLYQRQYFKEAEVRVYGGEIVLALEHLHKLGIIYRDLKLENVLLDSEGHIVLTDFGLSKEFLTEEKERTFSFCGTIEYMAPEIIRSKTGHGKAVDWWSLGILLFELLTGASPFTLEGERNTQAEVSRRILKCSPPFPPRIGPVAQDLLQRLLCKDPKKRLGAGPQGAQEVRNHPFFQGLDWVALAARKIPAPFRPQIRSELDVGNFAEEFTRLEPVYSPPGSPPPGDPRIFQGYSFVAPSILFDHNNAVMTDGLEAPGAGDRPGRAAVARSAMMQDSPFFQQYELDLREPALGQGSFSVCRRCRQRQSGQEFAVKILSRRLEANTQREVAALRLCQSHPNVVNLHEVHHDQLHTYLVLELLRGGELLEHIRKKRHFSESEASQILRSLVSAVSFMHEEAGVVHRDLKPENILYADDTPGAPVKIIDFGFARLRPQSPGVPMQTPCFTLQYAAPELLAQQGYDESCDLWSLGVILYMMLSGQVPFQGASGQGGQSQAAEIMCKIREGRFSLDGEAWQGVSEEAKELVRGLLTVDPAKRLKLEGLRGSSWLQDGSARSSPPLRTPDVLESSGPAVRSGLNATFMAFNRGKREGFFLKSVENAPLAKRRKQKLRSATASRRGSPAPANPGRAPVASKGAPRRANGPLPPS
Assay [4] addresses T2, Serine/threonine-protein kinase TAO3 (Homo sapiens) (UniProt Q9H2K8).
T2 sequence (whole entry): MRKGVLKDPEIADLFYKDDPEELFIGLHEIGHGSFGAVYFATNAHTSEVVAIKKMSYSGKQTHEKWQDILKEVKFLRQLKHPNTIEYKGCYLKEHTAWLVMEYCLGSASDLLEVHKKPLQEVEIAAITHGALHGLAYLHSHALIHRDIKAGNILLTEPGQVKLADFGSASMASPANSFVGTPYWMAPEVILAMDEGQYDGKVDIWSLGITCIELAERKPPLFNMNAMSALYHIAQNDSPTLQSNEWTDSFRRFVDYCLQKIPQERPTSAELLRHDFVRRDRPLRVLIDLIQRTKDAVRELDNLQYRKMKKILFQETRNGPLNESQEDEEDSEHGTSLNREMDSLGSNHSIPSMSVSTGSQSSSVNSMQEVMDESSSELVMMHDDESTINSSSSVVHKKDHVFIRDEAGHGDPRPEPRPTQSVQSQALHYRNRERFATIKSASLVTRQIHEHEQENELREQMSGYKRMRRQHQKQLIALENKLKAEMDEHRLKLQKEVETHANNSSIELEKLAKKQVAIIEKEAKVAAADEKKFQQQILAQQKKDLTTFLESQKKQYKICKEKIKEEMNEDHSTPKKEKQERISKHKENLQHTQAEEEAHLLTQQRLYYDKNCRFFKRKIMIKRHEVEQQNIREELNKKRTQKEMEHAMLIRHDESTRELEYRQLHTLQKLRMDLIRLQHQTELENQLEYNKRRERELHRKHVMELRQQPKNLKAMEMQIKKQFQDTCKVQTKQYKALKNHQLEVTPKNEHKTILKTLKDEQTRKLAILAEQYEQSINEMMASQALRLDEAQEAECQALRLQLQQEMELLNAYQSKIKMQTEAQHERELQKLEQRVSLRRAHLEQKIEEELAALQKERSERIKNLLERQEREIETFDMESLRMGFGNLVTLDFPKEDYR
Nature of the assay: Selectivity interaction (KinomeScan (DiscoverX)) EUB0001079a TAOK3. To be noted: at 1 µM.

Assay [5] addresses Proto-oncogene tyrosine-protein kinase receptor Ret (Homo sapiens, UniProt P07949). The assay can be described thus: Selectivity interaction (Millipore kinase profiler) EUB0000124b RET. To be noted: at 10 µM.
Assay [6] has as its target Activin receptor type-2B (Homo sapiens) (UniProt Q13705). The assay can be described thus: Selectivity interaction (KinomeScan (DiscoverX)) EUB0001049a ACVR2B. Particulars: at 1 µM.
Assay [7] has as its target T3, Serine/threonine-protein kinase RIO3 (Homo sapiens) (UniProt O14730).
T3 sequence (whole entry): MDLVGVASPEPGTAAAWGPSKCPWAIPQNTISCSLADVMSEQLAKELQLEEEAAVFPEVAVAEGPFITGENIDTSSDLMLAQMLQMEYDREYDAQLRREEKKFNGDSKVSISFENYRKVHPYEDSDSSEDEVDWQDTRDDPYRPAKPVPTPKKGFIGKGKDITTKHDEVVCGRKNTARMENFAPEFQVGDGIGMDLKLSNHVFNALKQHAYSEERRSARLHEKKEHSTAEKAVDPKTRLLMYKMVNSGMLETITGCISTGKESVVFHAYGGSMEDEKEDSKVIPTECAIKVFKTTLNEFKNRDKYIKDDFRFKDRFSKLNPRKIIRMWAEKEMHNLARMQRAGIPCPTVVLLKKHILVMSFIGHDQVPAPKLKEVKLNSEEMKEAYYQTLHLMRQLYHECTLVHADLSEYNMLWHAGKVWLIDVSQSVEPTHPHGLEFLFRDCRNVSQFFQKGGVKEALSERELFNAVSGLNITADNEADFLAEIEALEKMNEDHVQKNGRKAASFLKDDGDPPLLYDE
Nature of the assay: Selectivity interaction (KinomeScan (DiscoverX)) EUB0001049a RIOK3. Particulars: at 1 µM.

Molecules are shown by their SMILES.

Proto-oncogene tyrosine-protein kinase receptor Ret, sequence (P07949 whole entry): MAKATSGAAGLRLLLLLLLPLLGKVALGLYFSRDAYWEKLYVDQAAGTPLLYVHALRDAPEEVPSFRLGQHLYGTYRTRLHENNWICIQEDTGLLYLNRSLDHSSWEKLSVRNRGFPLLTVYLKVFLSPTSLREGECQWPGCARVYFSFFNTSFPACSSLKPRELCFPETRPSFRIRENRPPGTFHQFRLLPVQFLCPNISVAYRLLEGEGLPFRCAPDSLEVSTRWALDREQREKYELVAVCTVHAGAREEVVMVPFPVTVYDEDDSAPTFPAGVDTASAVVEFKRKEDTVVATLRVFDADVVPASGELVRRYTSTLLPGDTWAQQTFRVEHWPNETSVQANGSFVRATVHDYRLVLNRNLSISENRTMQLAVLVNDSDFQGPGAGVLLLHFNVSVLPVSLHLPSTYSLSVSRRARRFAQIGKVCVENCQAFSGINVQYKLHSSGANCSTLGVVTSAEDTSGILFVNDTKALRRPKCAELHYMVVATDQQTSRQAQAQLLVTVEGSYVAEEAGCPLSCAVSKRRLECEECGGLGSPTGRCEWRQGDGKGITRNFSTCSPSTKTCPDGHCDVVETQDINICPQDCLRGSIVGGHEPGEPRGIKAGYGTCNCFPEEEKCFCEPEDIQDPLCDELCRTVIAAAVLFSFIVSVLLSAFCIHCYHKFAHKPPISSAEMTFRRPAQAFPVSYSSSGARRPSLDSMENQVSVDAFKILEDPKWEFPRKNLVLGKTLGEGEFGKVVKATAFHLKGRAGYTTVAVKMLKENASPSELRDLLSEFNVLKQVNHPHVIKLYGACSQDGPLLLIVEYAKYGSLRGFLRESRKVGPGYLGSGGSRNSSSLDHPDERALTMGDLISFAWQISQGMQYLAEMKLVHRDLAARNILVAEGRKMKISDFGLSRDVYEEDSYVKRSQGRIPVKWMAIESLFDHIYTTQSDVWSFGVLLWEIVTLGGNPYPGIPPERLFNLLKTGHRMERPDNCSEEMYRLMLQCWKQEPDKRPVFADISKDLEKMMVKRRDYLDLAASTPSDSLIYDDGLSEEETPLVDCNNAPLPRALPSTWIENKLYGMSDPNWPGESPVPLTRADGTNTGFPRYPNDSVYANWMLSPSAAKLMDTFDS
Activin receptor type-2B (Homo sapiens), sequence (Q13705 whole entry): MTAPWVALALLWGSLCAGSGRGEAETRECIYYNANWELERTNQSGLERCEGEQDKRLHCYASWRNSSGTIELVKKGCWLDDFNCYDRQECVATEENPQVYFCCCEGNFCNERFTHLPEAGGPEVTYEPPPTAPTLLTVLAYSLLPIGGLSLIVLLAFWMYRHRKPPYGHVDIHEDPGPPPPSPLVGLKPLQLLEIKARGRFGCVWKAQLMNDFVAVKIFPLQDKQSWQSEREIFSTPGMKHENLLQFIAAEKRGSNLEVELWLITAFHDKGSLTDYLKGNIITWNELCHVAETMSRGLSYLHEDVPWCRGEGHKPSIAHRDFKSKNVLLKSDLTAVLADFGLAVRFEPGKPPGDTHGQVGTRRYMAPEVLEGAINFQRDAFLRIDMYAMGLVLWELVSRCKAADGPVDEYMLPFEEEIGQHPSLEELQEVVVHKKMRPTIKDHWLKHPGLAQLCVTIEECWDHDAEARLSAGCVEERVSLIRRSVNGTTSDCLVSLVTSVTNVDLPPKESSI

The compound `CNC(=O)Nc1ccc(-c2nc(N3CC4CCC(C3)O4)c3cnn(C4CCC5(CC4)OCCO5)c3n2)cc1` showed a % of control in assay [1] of 100%. Turning to `COc1cc(N(C)c2ccnc3ccc(C(F)(F)F)cc23)cc(OC)c1OC`, the % binding in assay [2] worked out at 58%. Turning to `Nc1cnc(N2CCc3cc(S(=O)(=O)Nc4c(F)cc(Cl)cc4F)cc(N4CCCC4=O)c32)nc1` [TP-020n], the % of control in assay [3] came out at 96%; in assay [4], 70%. `CC(=O)Nc1cccc(-n2c(=O)n(C3CC3)c(=O)c3c(Nc4ccc(I)cc4F)n(C)c(=O)c(C)c32)c1` came in with a % of control in assay [5] of 109%.

Regarding `COc1cc(Nc2nc(C)cc(-c3cnn4nc(OC)ccc34)n2)cc(C(F)(F)F)c1`, the values for the % of control in assay [6] and in assay [7] were 92% and 86%, respectively.

The record behind these values is ChEMBL document CHEMBL5465560, “Selectivity Literature for EUbOPEN Chemogenomic Library” (2024).
